Measured values published in patent US9458110B2, “Phenylpyrazole derivatives as potent ROCK1 and ROCK2 inhibitors” (BRISTOL-MYERS SQUIBB COMPANY, priority 2013, dated 2016).
pIC50: −log10 of the molar value.

What was measured:
ROCK1 = ROCK1 (Homo sapiens (Human), UniProt Q13464); assay: ROCK assay (Caliper LABCHIP peptide phosphorylation), ROCK1; type: biochemical; conditions: 5 μM ATP, 1.5 μM peptide substrate;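 also: Read-out is separation of phosphorylated from unphosphorylated peptide, with kinase activity inhibition computed at every concentration of a dose-response series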
ROCK2 = ROCK2 (Homo sapiens (Human), UniProt O75116); assay: ROCK assay (Caliper LABCHIP peptide phosphorylation), ROCK2; type: biochemical; conditions: 5 μM ATP, 1.5 μM peptide substrate;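 also: reaction stopped with EDTA, then phosphorylated and unphosphorylated peptide resolved by microfluidic electrophoresis, kinase inhibition computed at each compound concentration in dose-response series, DMSO under 2%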
Sequence of ROCK2 (O75116 whole entry, species assumed): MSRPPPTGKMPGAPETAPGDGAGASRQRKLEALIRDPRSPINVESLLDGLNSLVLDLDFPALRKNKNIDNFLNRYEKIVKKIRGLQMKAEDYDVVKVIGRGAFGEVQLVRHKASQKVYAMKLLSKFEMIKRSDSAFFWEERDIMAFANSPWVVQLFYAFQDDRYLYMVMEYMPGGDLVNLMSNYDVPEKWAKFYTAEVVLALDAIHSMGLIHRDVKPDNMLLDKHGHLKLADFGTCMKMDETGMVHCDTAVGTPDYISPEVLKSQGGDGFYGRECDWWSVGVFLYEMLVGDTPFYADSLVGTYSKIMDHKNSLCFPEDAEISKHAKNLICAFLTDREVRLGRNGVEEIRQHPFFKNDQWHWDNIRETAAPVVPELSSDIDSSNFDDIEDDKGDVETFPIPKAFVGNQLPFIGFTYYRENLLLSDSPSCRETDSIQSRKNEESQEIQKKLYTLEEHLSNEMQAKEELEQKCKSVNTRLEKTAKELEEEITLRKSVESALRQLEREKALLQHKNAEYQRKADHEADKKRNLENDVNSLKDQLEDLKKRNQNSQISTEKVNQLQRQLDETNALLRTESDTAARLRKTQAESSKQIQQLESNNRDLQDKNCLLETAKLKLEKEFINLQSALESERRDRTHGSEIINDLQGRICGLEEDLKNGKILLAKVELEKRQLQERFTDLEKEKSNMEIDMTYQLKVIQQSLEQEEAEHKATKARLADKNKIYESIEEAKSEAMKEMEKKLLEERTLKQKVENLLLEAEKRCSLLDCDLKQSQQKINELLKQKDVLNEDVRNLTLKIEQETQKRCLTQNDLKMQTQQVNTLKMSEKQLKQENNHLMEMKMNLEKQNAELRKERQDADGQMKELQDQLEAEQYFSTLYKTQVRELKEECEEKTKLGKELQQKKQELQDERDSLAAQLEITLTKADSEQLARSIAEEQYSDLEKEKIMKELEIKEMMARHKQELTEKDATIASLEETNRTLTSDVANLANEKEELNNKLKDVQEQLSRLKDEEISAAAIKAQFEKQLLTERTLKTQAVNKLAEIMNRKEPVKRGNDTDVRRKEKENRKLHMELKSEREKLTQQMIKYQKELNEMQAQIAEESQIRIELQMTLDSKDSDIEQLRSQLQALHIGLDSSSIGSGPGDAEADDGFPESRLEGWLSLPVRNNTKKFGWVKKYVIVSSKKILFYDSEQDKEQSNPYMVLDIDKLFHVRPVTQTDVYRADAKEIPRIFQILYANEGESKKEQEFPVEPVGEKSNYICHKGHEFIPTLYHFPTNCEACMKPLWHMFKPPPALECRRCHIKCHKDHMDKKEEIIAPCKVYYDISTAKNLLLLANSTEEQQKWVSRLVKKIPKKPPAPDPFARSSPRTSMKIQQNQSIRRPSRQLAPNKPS

Sequence of ROCK1 (Q13464 whole entry, species assumed): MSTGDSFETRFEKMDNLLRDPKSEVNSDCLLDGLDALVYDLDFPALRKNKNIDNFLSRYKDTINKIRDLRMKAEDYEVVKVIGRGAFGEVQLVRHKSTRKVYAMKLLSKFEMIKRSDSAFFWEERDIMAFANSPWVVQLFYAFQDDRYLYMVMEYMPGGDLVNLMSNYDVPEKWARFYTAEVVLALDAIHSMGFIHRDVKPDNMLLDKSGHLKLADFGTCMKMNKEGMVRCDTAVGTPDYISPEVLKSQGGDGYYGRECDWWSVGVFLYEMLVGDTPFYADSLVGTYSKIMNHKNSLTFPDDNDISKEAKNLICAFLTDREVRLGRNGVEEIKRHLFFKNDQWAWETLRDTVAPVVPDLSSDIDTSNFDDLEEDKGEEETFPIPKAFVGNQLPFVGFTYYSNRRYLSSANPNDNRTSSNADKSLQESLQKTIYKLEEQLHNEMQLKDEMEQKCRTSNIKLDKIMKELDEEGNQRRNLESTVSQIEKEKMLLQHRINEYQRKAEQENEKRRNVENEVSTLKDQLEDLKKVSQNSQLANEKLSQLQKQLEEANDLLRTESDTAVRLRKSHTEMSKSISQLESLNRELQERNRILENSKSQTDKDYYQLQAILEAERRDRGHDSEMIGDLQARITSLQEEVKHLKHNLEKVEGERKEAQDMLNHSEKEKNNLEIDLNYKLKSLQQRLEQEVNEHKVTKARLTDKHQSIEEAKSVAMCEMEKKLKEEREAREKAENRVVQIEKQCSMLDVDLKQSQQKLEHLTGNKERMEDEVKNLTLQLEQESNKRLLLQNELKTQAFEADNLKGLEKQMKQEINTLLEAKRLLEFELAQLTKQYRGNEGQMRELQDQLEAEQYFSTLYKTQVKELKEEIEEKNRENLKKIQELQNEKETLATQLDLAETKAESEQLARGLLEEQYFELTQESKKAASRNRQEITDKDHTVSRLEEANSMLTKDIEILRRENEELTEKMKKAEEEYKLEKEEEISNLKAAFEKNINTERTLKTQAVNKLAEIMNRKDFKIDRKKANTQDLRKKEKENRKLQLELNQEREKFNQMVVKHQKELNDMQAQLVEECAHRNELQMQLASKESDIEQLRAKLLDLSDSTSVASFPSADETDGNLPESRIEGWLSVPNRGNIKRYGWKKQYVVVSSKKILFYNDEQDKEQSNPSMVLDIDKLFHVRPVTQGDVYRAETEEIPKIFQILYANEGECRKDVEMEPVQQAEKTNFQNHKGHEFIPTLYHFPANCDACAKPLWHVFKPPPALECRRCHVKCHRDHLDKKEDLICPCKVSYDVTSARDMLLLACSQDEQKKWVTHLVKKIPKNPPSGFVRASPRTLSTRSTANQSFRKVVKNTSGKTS

A pIC50 (ROCK1) of 8.19 and a pIC50 (ROCK2) of 9.09 were found for `COC(=O)c1cc(CNC(=O)c2ccc(-c3cn[nH]c3)c(OC)c2)ccc1F` [Example 134, methyl 2-fluoro-5-({[3-methoxy-4-(1H-pyrazol-4-yl)phenyl] formamido}methyl)benzoate] in this work.
A pIC50 (ROCK1) of 6.30 and a pIC50 (ROCK2) of 7.03 were found for `COc1cc(C(=O)NCc2cccc(C(=O)N(C)C)c2)ccc1-c1cn[nH]c1` [Example 235, N-{[3-(dimethyl-carbamoyl)phenyl]methyl}-3-methoxy-4-(1H-pyrazol-4-yl)benzamide] in this work.
A pIC50 (ROCK1) of 7.22 and a pIC50 (ROCK2) of 7.83 were found for `COc1cc(-c2cn[nH]c2)ccc1C(=O)NC(C)c1c(F)cccc1Cl` (stereo not drawn) [Example 223, N-[1-(2-chloro-6-fluorophenyl)ethyl]-2-methoxy-4-(1H-pyrazol-4-yl)benzamide] in this work.
A pIC50 (ROCK1) of 7.08 and a pIC50 (ROCK2) of 7.80 were found for `CCOc1cc(C(=O)N[C@H](CO)c2c(F)cccc2F)ccc1-c1cn[nH]c1` [Example 195, N-[(1S)-1-(2,6-difluorophenyl)-2-hydroxyethyl]-3-ethoxy-4-(1H-pyrazol-4-yl)benzamide] in this work.
A pIC50 (ROCK1) of 8.61 and a pIC50 (ROCK2) of 9.15 were found for `Cc1cc(C(=O)NCc2cccc(C(=O)NC[C@H]3CCCN3)c2)ccc1-c1cn[nH]c1` [Example 245, 3-methyl-4-(1H-pyrazol-4-yl)-N-[(3-{[(2R)-pyrrolidin-2-ylmethyl]carbamoyl}phenyl)methyl] benzamide] in this work.
A pIC50 (ROCK1) of 8.23 and a pIC50 (ROCK2) of 8.83 were found for `COc1cc(C(=O)N[C@H](C)c2ccccc2)ccc1-c1cn[nH]c1` [Example 72, (R)-3-methoxy-N-(1-phenylethyl)-4-(1H-pyrazol-4-yl)benzamide] in this work.
A pIC50 (ROCK1) of 7.01 and a pIC50 (ROCK2) of 7.96 were found for `CC(=O)NC[C@@H](NC(=O)c1ccc(-c2cn[nH]c2)c(C)c1)c1ccccc1` [Example 255, N-[(2S)-2-{[3-Methyl-4-(1H-pyrazol-4-yl)phenyl]formamido}-2-phenylethyl]acetamide] in this work.
A pIC50 (ROCK1) of 7.46 and a pIC50 (ROCK2) of 7.71 were found for `COc1cc(C(=O)N[C@@H](c2c(F)cccc2F)C(O)CO)ccc1-c1cn[nH]c1` (stereo partly drawn) [Example 175, N-[(1S)-1-(2,6-difluorophenyl)-2,3-dihydroxy-propyl]-3-methoxy-4-(1H-pyrazol-4-yl)benzamide] in this work.
A pIC50 (ROCK1) of 8.14 and a pIC50 (ROCK2) of 8.64 were found for `COc1cccc([C@@H](C)NC(=O)c2ccc(-c3cn[nH]c3)cc2OCCO)c1` [Example 315, 2-(2-hydroxyethoxy)-N-[(1R)-1-(3-methoxyphenyl)ethyl]-4-(1H-pyrazol-4-yl)benzamide] in this work.
A pIC50 (ROCK1) of 7.83 and a pIC50 (ROCK2) of 8.27 were found for `COc1cc(C(=O)NCc2c(F)ccc(OC)c2F)ccc1-c1cn[nH]c1` [Example 51, N-(2,6-difluoro-3-methoxybenzyl)-3-methoxy-4-(1H-pyrazol-4-yl)benzamide] in this work.
A pIC50 (ROCK1) of 7.86 and a pIC50 (ROCK2) of 8.58 were found for `COC(=O)c1cccc(CNC(=O)c2ccc(-c3cn[nH]c3)c(C)c2)c1` [Example 108, methyl 3-({[3-methyl-4-(1H-pyrazol-4-yl)phenyl] formamido}methyl) benzoate] in this work.
A pIC50 (ROCK1) of 7.66 and a pIC50 (ROCK2) of 7.95 were found for `COc1cc(C(=O)NCc2c(F)cc(F)cc2F)ccc1-c1cn[nH]c1` [Example 89, 3-methoxy-4-(1H-pyrazol-4-yl)-N-[(2,4,6-trifluorophenyl)methyl] benzamide] in this work.
A pIC50 (ROCK1) of 8.47 and a pIC50 (ROCK2) of 8.60 were found for `COc1cc(C(=O)NCc2ccc(F)cc2Cl)ccc1-c1cn[nH]c1` [Example 41, N-(2-chloro-4-fluorobenzyl)-3-methoxy-4-(1H-pyrazol-4-yl)benzamide] in this work.
A pIC50 (ROCK1) of 6.81 and a pIC50 (ROCK2) of 7.21 were found for `COc1cc(C(=O)NCc2csc(-c3ccccc3)n2)ccc1-c1cn[nH]c1` [Example 9, 3-methoxy-N-((2-phenylthiazol-4-yl)methyl)-4-(1H-pyrazol-4-yl)benzamide] in this work.
A pIC50 (ROCK1) of 7.85 and a pIC50 (ROCK2) of 7.00 were found for `COc1cc(-c2c[nH]nc2C)ccc1C(=O)NCc1c(F)cccc1Cl` [Example 184, N-[(2-chloro-6-fluorophenyl)methyl]-2-methoxy-4-(3-methyl-1H-pyrazol-4-yl)benzamide] in this work.
